{"source": "the kinase profiling compilation of Christmann-Franck et al. (2016)", "assay_in_all_cases": "KINOMEscan competition binding", "details_in_all_cases": "compound 2.0 µM", "key": {"HUNK (human)": {"target": "HUNK (human) (UniProt P57058)"}, "HIPK4 (human)": {"target": "HIPK4 (human) (UniProt Q8NE63)", "sequence (Q8NE63 whole entry, looked up)": "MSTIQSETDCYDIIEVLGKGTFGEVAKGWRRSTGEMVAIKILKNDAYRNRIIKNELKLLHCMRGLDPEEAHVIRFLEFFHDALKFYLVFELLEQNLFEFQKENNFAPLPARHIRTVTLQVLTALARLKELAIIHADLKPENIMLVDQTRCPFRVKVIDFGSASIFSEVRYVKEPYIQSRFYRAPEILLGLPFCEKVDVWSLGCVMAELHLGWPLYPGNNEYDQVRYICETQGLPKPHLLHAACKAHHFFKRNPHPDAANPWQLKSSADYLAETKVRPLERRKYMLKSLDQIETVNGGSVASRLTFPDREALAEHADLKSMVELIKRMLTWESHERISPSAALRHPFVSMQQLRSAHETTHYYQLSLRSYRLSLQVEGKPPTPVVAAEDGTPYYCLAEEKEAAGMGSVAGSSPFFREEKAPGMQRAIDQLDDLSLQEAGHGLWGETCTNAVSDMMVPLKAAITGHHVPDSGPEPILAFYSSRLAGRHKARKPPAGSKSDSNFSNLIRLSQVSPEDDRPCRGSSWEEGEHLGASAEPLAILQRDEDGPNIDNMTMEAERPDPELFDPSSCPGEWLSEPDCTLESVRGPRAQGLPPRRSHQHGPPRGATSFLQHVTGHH"}, "CRK2 (P.falciparum)": {"target": "CRK2 (P.falciparum) (UniProt P61075)"}, "STK33 (human)": {"target": "STK33 (human) (UniProt Q9BYT3)", "sequence (Q9BYT3 whole entry, looked up)": "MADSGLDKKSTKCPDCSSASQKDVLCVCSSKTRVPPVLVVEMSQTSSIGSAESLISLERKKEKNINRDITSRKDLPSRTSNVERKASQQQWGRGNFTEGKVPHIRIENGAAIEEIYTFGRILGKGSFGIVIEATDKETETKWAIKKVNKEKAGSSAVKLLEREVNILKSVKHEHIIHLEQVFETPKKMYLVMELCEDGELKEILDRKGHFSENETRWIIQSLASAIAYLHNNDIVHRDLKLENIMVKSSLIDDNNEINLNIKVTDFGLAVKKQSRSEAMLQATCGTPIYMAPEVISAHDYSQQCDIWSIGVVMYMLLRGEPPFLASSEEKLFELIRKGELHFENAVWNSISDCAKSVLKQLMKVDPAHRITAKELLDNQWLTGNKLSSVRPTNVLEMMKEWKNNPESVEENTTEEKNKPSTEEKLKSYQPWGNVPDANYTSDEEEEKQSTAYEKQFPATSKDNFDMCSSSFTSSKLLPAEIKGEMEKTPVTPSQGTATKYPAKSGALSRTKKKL"}, "CSNK1G2 (human)": {"target": "CSNK1G2 (human) (UniProt P78368)"}, "PKN1 (human)": {"target": "PKN1 (human) (UniProt Q16512)"}, "STK4 (human)": {"target": "STK4 (human) (UniProt Q13043)"}, "PRKG2 (human)": {"target": "PRKG2 (human) (UniProt Q13237)"}, "FGR (human)": {"target": "FGR (human) (UniProt P09769)"}, "MAP4K1 (human)": {"target": "MAP4K1 (human) (UniProt Q92918)", "sequence (Q92918 whole entry, looked up)": "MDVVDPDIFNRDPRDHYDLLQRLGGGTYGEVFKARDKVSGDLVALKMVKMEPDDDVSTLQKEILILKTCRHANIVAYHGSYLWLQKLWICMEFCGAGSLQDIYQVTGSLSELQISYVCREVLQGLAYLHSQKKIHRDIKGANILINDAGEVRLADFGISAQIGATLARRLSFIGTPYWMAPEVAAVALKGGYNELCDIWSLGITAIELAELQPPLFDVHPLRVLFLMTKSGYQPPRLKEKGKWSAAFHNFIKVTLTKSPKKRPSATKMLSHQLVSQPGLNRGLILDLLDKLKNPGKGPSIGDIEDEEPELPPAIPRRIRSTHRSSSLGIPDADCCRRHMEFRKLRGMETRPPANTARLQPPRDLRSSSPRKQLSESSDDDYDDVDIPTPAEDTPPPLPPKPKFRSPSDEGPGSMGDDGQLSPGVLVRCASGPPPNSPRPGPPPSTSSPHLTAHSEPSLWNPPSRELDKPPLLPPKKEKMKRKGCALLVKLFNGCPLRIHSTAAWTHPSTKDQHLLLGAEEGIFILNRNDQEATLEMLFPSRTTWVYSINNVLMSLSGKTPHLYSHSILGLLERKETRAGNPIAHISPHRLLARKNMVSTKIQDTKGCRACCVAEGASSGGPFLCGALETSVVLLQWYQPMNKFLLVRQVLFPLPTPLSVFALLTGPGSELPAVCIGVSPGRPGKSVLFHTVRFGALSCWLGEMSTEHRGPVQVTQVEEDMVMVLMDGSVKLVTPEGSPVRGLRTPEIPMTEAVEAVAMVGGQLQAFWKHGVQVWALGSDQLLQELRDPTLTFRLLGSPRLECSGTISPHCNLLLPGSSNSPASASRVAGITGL"}, "MARK3 (human)": {"target": "MARK3 (human) (UniProt P27448)"}, "CDKL5 (human)": {"target": "CDKL5 (human) (UniProt O76039)"}, "ABL2 (human)": {"target": "ABL2 (human) (UniProt P42684)"}, "[1]": {"tested_on": "PIK3CA (human), P42336 [H1047L]", "sequence (P42336 whole entry H1047L, looked up)": "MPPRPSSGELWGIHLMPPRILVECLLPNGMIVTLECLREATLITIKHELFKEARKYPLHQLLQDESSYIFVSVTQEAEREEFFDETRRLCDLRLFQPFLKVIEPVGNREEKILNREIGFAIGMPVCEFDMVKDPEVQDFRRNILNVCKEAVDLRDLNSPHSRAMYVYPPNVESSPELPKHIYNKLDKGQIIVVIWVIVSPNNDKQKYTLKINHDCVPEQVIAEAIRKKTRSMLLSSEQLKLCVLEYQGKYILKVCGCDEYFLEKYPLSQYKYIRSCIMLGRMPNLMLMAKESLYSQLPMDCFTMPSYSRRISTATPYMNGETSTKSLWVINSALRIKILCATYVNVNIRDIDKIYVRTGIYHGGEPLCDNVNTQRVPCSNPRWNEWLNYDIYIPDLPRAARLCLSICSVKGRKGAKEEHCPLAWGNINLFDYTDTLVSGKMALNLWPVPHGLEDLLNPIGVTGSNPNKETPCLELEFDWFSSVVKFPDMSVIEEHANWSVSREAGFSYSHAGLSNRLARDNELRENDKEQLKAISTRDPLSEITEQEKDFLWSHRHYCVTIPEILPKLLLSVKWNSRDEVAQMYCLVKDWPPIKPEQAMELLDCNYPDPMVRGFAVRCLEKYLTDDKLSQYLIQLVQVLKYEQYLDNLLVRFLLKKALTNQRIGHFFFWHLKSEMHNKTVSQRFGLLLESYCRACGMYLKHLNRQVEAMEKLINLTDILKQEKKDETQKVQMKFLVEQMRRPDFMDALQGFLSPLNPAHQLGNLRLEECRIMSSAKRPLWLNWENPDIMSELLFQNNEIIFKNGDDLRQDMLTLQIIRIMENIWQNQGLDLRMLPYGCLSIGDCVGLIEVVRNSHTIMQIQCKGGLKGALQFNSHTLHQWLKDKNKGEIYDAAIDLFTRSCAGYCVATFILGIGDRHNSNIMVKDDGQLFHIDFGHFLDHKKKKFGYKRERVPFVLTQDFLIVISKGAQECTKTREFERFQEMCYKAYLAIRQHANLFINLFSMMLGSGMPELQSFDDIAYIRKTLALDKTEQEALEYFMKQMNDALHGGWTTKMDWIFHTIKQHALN"}, "CDC42BPG (human)": {"target": "CDC42BPG (human) (UniProt Q6DT37)"}, "RIPK1 (human)": {"target": "RIPK1 (human) (UniProt Q13546)"}, "SGK3 (human)": {"target": "SGK3 (human) (UniProt Q96BR1)"}, "ACVR2B (human)": {"target": "ACVR2B (human) (UniProt Q13705)"}, "CAMK2A (human)": {"target": "CAMK2A (human) (UniProt Q9UQM7)"}, "MERTK (human)": {"target": "MERTK (human) (UniProt Q12866)"}, "TRPM6 (human)": {"target": "TRPM6 (human) (UniProt Q9BX84)"}, "CHEK1 (human)": {"target": "CHEK1 (human) (UniProt O14757)"}, "MAP3K6 (human)": {"target": "MAP3K6 (human) (UniProt O95382)"}, "MYLK (human)": {"target": "MYLK (human) (UniProt Q15746)"}, "LIMK1 (human)": {"target": "LIMK1 (human) (UniProt P53667)"}, "RPS6KA1 KD2 (human)": {"target": "RPS6KA1 KD2 (human) (UniProt Q15418)"}, "TLK1 (human)": {"target": "TLK1 (human) (UniProt Q9UKI8)"}, "BTK (human)": {"target": "BTK (human) (UniProt Q06187)"}, "INSR (human)": {"target": "INSR (human) (UniProt P06213)"}, "NTRK2 (human)": {"target": "NTRK2 (human) (UniProt Q16620)"}, "LATS1 (human)": {"target": "LATS1 (human) (UniProt O95835)", "sequence (O95835 whole entry, looked up)": "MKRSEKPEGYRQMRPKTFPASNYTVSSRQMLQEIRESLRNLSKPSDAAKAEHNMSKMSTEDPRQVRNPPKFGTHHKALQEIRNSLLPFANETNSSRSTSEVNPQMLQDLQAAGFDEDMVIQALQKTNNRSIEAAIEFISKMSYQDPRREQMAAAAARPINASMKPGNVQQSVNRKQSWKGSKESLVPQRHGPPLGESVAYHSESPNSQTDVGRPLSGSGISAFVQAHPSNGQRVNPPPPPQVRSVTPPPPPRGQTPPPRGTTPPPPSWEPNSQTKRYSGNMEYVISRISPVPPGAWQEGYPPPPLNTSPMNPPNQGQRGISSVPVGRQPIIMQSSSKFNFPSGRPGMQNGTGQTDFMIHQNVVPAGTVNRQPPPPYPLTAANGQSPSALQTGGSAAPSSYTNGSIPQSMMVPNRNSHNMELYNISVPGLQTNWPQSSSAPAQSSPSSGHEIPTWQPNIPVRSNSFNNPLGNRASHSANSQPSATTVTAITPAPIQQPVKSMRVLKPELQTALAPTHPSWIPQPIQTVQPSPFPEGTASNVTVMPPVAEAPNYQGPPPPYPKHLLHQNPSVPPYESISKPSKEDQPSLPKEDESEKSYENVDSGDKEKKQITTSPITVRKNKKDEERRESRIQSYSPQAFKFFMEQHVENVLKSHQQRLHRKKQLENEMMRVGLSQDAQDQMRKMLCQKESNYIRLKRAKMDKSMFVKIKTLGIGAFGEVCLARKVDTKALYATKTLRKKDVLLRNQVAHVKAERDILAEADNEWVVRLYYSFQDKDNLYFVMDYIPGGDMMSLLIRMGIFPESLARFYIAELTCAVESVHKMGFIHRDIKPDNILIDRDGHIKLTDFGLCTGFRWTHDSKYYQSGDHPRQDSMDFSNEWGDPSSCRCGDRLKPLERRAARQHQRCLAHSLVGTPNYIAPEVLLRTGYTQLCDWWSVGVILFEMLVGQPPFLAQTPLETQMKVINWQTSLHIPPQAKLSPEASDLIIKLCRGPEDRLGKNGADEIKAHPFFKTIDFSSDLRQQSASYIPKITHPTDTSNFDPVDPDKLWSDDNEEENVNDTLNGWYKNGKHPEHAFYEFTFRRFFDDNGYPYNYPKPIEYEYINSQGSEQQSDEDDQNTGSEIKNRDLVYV"}, "[2]": {"target": "JAK1 JH2 pseudokinase (human) (UniProt P23458)"}, "BRSK1 (human)": {"target": "BRSK1 (human) (UniProt Q8TDC3)"}, "RIOK2 (human)": {"target": "RIOK2 (human) (UniProt Q9BVS4)"}, "MARK1 (human)": {"target": "MARK1 (human) (UniProt Q9P0L2)"}, "DAPK2 (human)": {"target": "DAPK2 (human) (UniProt Q9UIK4)"}, "ITK (human)": {"target": "ITK (human) (UniProt Q08881)"}, "TSSK1B (human)": {"target": "TSSK1B (human) (UniProt Q9BXA7)"}, "[3]": {"tested_on": "PIK3CA (human), P42336 [Q546K]", "sequence (P42336 whole entry Q546K, looked up)": "as the sequence (P42336 whole entry H1047L, looked up) above, with Q546K, L1047H counted along it"}, "FYN (human)": {"target": "FYN (human) (UniProt P06241)"}, "MAPK3 (human)": {"target": "MAPK3 (human) (UniProt P27361)", "sequence (P27361 whole entry, looked up)": "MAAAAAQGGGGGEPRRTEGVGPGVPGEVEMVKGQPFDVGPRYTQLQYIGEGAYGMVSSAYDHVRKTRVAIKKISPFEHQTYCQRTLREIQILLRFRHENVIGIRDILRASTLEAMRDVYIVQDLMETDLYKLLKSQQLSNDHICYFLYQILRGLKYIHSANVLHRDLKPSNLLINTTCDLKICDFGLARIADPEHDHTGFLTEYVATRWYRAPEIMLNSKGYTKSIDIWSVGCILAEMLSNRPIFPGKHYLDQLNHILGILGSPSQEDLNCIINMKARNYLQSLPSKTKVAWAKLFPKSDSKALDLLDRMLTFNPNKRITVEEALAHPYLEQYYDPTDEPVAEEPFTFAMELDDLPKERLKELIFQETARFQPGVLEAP"}, "TEC (human)": {"target": "TEC (human) (UniProt P42680)"}, "SRMS (human)": {"target": "SRMS (human) (UniProt Q9H3Y6)", "sequence (Q9H3Y6 whole entry, looked up)": "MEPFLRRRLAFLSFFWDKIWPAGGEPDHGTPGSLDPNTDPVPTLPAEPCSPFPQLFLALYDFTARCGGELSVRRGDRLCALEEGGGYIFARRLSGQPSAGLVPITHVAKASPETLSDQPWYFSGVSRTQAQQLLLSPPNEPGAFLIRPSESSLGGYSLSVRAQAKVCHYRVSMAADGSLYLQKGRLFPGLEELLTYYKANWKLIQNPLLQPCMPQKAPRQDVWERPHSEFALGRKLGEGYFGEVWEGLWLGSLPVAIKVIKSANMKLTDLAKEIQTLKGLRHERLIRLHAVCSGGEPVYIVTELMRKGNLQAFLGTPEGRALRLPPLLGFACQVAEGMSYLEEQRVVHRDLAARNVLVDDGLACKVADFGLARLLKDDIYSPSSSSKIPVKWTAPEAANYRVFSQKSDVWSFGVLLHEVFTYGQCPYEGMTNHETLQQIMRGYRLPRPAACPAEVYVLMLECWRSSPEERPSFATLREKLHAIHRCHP"}}}
{"smiles": "N#Cc1ccc2ncnc(NCCc3ccc4ccccc4c3)c2c1", "values": [{"measurement": "kinase still bound, per cent of control", "setting": "HUNK (human)", "value": 100, "unit": "%"}, {"measurement": "kinase still bound, per cent of control", "setting": "HIPK4 (human)", "value": 81, "unit": "%"}, {"measurement": "kinase still bound, per cent of control", "setting": "CRK2 (P.falciparum)", "value": 100, "unit": "%"}, {"measurement": "kinase still bound, per cent of control", "setting": "STK33 (human)", "value": 96, "unit": "%"}, {"measurement": "kinase still bound, per cent of control", "setting": "CSNK1G2 (human)", "value": 87, "unit": "%"}, {"measurement": "kinase still bound, per cent of control", "setting": "PKN1 (human)", "value": 100, "unit": "%"}, {"measurement": "kinase still bound, per cent of control", "setting": "STK4 (human)", "value": 100, "unit": "%"}, {"measurement": "kinase still bound, per cent of control", "setting": "PRKG2 (human)", "value": 100, "unit": "%"}, {"measurement": "kinase still bound, per cent of control", "setting": "FGR (human)", "value": 100, "unit": "%"}, {"measurement": "kinase still bound, per cent of control", "setting": "MAP4K1 (human)", "value": 81, "unit": "%"}, {"measurement": "kinase still bound, per cent of control", "setting": "MARK3 (human)", "value": 95, "unit": "%"}, {"measurement": "kinase still bound, per cent of control", "setting": "CDKL5 (human)", "value": 100, "unit": "%"}, {"measurement": "kinase still bound, per cent of control", "setting": "ABL2 (human)", "value": 99, "unit": "%"}, {"measurement": "kinase still bound, per cent of control", "setting": "[1]", "value": 100, "unit": "%"}, {"measurement": "kinase still bound, per cent of control", "setting": "CDC42BPG (human)", "value": 92, "unit": "%"}, {"measurement": "kinase still bound, per cent of control", "setting": "RIPK1 (human)", "value": 85, "unit": "%"}, {"measurement": "kinase still bound, per cent of control", "setting": "SGK3 (human)", "value": 100, "unit": "%"}, {"measurement": "kinase still bound, per cent of control", "setting": "ACVR2B (human)", "value": 89, "unit": "%"}, {"measurement": "kinase still bound, per cent of control", "setting": "CAMK2A (human)", "value": 99, "unit": "%"}, {"measurement": "kinase still bound, per cent of control", "setting": "MERTK (human)", "value": 93, "unit": "%"}, {"measurement": "kinase still bound, per cent of control", "setting": "TRPM6 (human)", "value": 100, "unit": "%"}, {"measurement": "kinase still bound, per cent of control", "setting": "CHEK1 (human)", "value": 97, "unit": "%"}, {"measurement": "kinase still bound, per cent of control", "setting": "MAP3K6 (human)", "value": 100, "unit": "%"}, {"measurement": "kinase still bound, per cent of control", "setting": "MYLK (human)", "value": 100, "unit": "%"}, {"measurement": "kinase still bound, per cent of control", "setting": "LIMK1 (human)", "value": 100, "unit": "%"}, {"measurement": "kinase still bound, per cent of control", "setting": "RPS6KA1 KD2 (human)", "value": 88, "unit": "%"}, {"measurement": "kinase still bound, per cent of control", "setting": "TLK1 (human)", "value": 92, "unit": "%"}, {"measurement": "kinase still bound, per cent of control", "setting": "BTK (human)", "value": 86, "unit": "%"}, {"measurement": "kinase still bound, per cent of control", "setting": "INSR (human)", "value": 100, "unit": "%"}, {"measurement": "kinase still bound, per cent of control", "setting": "NTRK2 (human)", "value": 98, "unit": "%"}, {"measurement": "kinase still bound, per cent of control", "setting": "LATS1 (human)", "value": 93, "unit": "%"}, {"measurement": "kinase still bound, per cent of control", "setting": "[2]", "value": 100, "unit": "%"}, {"measurement": "kinase still bound, per cent of control", "setting": "BRSK1 (human)", "value": 100, "unit": "%"}, {"measurement": "kinase still bound, per cent of control", "setting": "RIOK2 (human)", "value": 94, "unit": "%"}, {"measurement": "kinase still bound, per cent of control", "setting": "MARK1 (human)", "value": 83, "unit": "%"}, {"measurement": "kinase still bound, per cent of control", "setting": "DAPK2 (human)", "value": 87, "unit": "%"}, {"measurement": "kinase still bound, per cent of control", "setting": "ITK (human)", "value": 80, "unit": "%"}, {"measurement": "kinase still bound, per cent of control", "setting": "TSSK1B (human)", "value": 100, "unit": "%"}, {"measurement": "kinase still bound, per cent of control", "setting": "[3]", "value": 85, "unit": "%"}, {"measurement": "kinase still bound, per cent of control", "setting": "FYN (human)", "value": 98, "unit": "%"}, {"measurement": "kinase still bound, per cent of control", "setting": "MAPK3 (human)", "value": 95, "unit": "%"}, {"measurement": "kinase still bound, per cent of control", "setting": "TEC (human)", "value": 100, "unit": "%"}, {"measurement": "kinase still bound, per cent of control", "setting": "SRMS (human)", "value": 84, "unit": "%"}]}
